Reference: ChEMBL document CHEMBL1148023, “Synthesis and antibacterial activity of derivatives of 6-O-allylic acylides” (2007)
In brackets after ≈: the same amount, converted by molar mass.

How the values were obtained:
Type in all cases: functional
[1] = test system: Staphylococcus epidermidis; experiment: Antibacterial activity against methicillin-sensitive Staphylococcus epidermidis 01-1004 by broth microdilution method
[2] = test system: Staphylococcus epidermidis; experiment: Antibacterial activity against methicillin-resistant Staphylococcus epidermidis 01-1090 by broth microdilution method
[3] = test system: Streptococcus pyogenes; experiment: Antibacterial activity against erythromycin-susceptible Streptococcus pyogenes 01-740 by broth microdilution method
[4] = test system: Streptococcus pneumoniae; experiment: Antibacterial activity against erythromycin-resistant Streptococcus pneumoniae 03-451 by broth microdilution method
[5] = test system: Streptococcus pneumoniae; experiment: Antibacterial activity against erythromycin-resistant Streptococcus pneumoniae 03-436 by broth microdilution method
[6] = test system: Staphylococcus epidermidis; experiment: Antibacterial activity against methicillin-sensitive Staphylococcus epidermidis 01-1091 by broth microdilution method
[7] = test system: Streptococcus pneumoniae; experiment: Antibacterial activity against erythromycin-resistant Streptococcus pneumoniae 03-458 by broth microdilution method
[8] = test system: Staphylococcus aureus; experiment: Antibacterial activity against methicillin-resistant Staphylococcus aureus 01-429 by broth microdilution method
[9] = test system: Staphylococcus epidermidis; experiment: Antibacterial activity against methicillin-sensitive Staphylococcus epidermidis 01-1005 by broth microdilution method
[10] = test system: Staphylococcus aureus; experiment: Antibacterial activity against methicillin-resistant Staphylococcus aureus 01-483 by broth microdilution method
[11] = test system: Staphylococcus aureus; experiment: Antibacterial activity against methicillin-resistant Staphylococcus aureus 01-433 by broth microdilution method
[12] = test system: Streptococcus pyogenes; experiment: Antibacterial activity against erythromycin-resistant Streptococcus pyogenes 03-680 by broth microdilution method
[13] = test system: Streptococcus pneumoniae; experiment: Antibacterial activity against Streptococcus pneumoniae ATCC 49619 by broth microdilution method
[14] = test system: Streptococcus pyogenes; experiment: Antibacterial activity against erythromycin-susceptible Streptococcus pyogenes 01-469 by broth microdilution method
[15] = test system: Streptococcus pyogenes; experiment: Antibacterial activity against erythromycin-susceptible Streptococcus pyogenes 01-804 by broth microdilution method
[16] = test system: Staphylococcus epidermidis; experiment: Antibacterial activity against methicillin-resistant Staphylococcus epidermidis 01-1059 by broth microdilution method
[17] = test system: Staphylococcus aureus; experiment: Antibacterial activity against methicillin-sensitive Staphylococcus aureus 01-430 by broth microdilution method
[18] = test system: Staphylococcus aureus; experiment: Antibacterial activity against methicillin-sensitive Staphylococcus aureus 01-431 by broth microdilution method
[19] = test system: Staphylococcus epidermidis; experiment: Antibacterial activity against methicillin-resistant Staphylococcus epidermidis 01-1056 by broth microdilution method
[20] = test system: Staphylococcus aureus; experiment: Antibacterial activity against methicillin-sensitive Staphylococcus aureus 01-481 by broth microdilution method

| Structure (SMILES) | MIC [1] | MIC [2] | MIC [3] | MIC [4] | MIC [5] | MIC [6] | MIC [7] | MIC [8] | MIC [9] | MIC [10] | MIC [11] | MIC [12] | MIC [13] | MIC [14] | MIC [15] | MIC [16] | MIC [17] | MIC [18] | MIC [19] | MIC [20] |
| --- | --- | --- | --- | --- | --- | --- | --- | --- | --- | --- | --- | --- | --- | --- | --- | --- | --- | --- | --- | --- |
| C=CCO[C@@H]1C[C@@H](C)C(=O)[C@H](C)[C@H]2OC(=O)O[C@]2(C)[C@@H](CC)OC(=O)[C@H](C)[C@@H](OC(=O)COc2ccccc2)[C@H](C)[C@H]1OC1O[C@H](C)C[C@H](N(C)C)[C@H]1O (stereo not given in full) | 8 µg/mL (≈ 10.5 µM) | 32 µg/mL (≈ 42 µM) | 0.5 µg/mL (≈ 0.656 µM) | 16 µg/mL (≈ 21 µM) | 32 µg/mL (≈ 42 µM) | 8 µg/mL (≈ 10.5 µM) | 16 µg/mL (≈ 21 µM) | 32 µg/mL (≈ 42 µM) | 8 µg/mL (≈ 10.5 µM) | 32 µg/mL (≈ 42 µM) | 32 µg/mL (≈ 42 µM) | 16 µg/mL (≈ 21 µM) | 2 µg/mL (≈ 2.62 µM) | 0.5 µg/mL (≈ 0.656 µM) | 1 µg/mL (≈ 1.31 µM) | 32 µg/mL (≈ 42 µM) | 16 µg/mL (≈ 21 µM) | 16 µg/mL (≈ 21 µM) | 32 µg/mL (≈ 42 µM) | 32 µg/mL (≈ 42 µM) |
| C=CCO[C@@H]1C[C@@H](C)C(=O)[C@H](C)[C@H]2OC(=O)O[C@]2(C)[C@@H](CC)OC(=O)[C@H](C)[C@@H](OC(=O)Cc2cccc(F)c2)[C@H](C)[C@H]1O[C@@H]1O[C@H](C)C[C@H](N(C)C)[C@H]1O | 1 µg/mL (≈ 1.31 µM) | 1 µg/mL (≈ 1.31 µM) | 0.125 µg/mL (≈ 0.164 µM) | 4 µg/mL (≈ 5.24 µM) | 8 µg/mL (≈ 10.5 µM) | 1 µg/mL (≈ 1.31 µM) | 2 µg/mL (≈ 2.62 µM) | 16 µg/mL (≈ 20.9 µM) | 1 µg/mL (≈ 1.31 µM) | 2 µg/mL (≈ 2.62 µM) | 16 µg/mL (≈ 20.9 µM) | 16 µg/mL (≈ 20.9 µM) | 0.125 µg/mL (≈ 0.164 µM) | 0.125 µg/mL (≈ 0.164 µM) | 0.125 µg/mL (≈ 0.164 µM) | 2 µg/mL (≈ 2.62 µM) | 1 µg/mL (≈ 1.31 µM) | 1 µg/mL (≈ 1.31 µM) | 32 µg/mL (≈ 41.9 µM) | 2 µg/mL (≈ 2.62 µM) |
| C=CCO[C@@H]1C[C@@H](C)C(=O)[C@H](C)[C@H]2OC(=O)O[C@]2(C)[C@@H](CC)OC(=O)[C@H](C)[C@@H](OC(=O)Cc2ccc3c(c2)OCO3)[C@H](C)[C@H]1O[C@@H]1O[C@H](C)C[C@H](N(C)C)[C@H]1O | 0.5 µg/mL (≈ 0.633 µM) | 1 µg/mL (≈ 1.27 µM) | 0.016 µg/mL (≈ 0.0203 µM) | 4 µg/mL (≈ 5.06 µM) | 8 µg/mL (≈ 10.1 µM) | 0.5 µg/mL (≈ 0.633 µM) | 2 µg/mL (≈ 2.53 µM) | 32 µg/mL (≈ 40.5 µM) | 0.5 µg/mL (≈ 0.633 µM) | 1 µg/mL (≈ 1.27 µM) | 32 µg/mL (≈ 40.5 µM) | 16 µg/mL (≈ 20.3 µM) | 0.062 µg/mL (≈ 0.0785 µM) | 0.016 µg/mL (≈ 0.0203 µM) | 0.031 µg/mL (≈ 0.0392 µM) | 1 µg/mL (≈ 1.27 µM) | 0.5 µg/mL (≈ 0.633 µM) | 0.5 µg/mL (≈ 0.633 µM) | 32 µg/mL (≈ 40.5 µM) | 1 µg/mL (≈ 1.27 µM) |
| C=CCO[C@@H]1C[C@@H](C)C(=O)[C@H](C)[C@H]2OC(=O)O[C@]2(C)[C@@H](CC)OC(=O)[C@H](C)[C@@H](OC(=O)Cc2c[nH]c3ccccc23)[C@H](C)C1O[C@@H]1O[C@H](C)C[C@H](N(C)C)[C@H]1O (stereo not given in full) | 4 µg/mL (≈ 5.1 µM) | 32 µg/mL (≈ 40.8 µM) | 0.5 µg/mL (≈ 0.637 µM) | 16 µg/mL (≈ 20.4 µM) | 32 µg/mL (≈ 40.8 µM) | 4 µg/mL (≈ 5.1 µM) | 32 µg/mL (≈ 40.8 µM) | 16 µg/mL (≈ 20.4 µM) | 4 µg/mL (≈ 5.1 µM) | 16 µg/mL (≈ 20.4 µM) | 16 µg/mL (≈ 20.4 µM) | 16 µg/mL (≈ 20.4 µM) | 2 µg/mL (≈ 2.55 µM) | 0.5 µg/mL (≈ 0.637 µM) | 0.5 µg/mL (≈ 0.637 µM) | 32 µg/mL (≈ 40.8 µM) | 8 µg/mL (≈ 10.2 µM) | 8 µg/mL (≈ 10.2 µM) | 32 µg/mL (≈ 40.8 µM) | 16 µg/mL (≈ 20.4 µM) |
